Patent US20220023386A1, “METHOD FOR THE TREATMENT OR PREVENTION OF OSTEOARTHRITIS” (Chondropeptix B.V., priority 2016, published 2022)

Key:
[1] = system: OA articular chondrocytes; test: Expression of OA chondrocyte phenotype marker genes by RT-qPCR after peptide exposure; assay type: cell-based, human; parameters: key: [—] denotes the absence of a significant effect or a significantly decreased expression of chondrogenic marker BAPX1/NKX3.2 or an increased expression of OA chondrocyte phenotypic markers ALP, MMP13, ADAMTS5, COX2, COL10A and RUNX2 in OA articular chondrocytes, in comparison to untreated OA articular chondrocyts; settings: Table 1, 20-mer peptides with native cysteines; vs untreated OA articular chondrocytes
Experimental: The action of 20-mer peptides (10 nM) of SEQ ID NO: 2-15 (peptides with 1 amino acids intervals (19 amino acid overlap)) and SEQ ID NO:49 on the expression of the indicated genes was determined on a validated pool of passage 2 OA human articular chondrocytes (n=18) and compared to full-length recombinant BMP-7 (1 nM). Samples were harvested after 24 hours and analyzed for indicated genes by RT-qPCR (corrected for 28S rRNA expression and relative to control conditions (no peptide exposure)). In the graphs, numbers on the x-axis represent individual peptides according to their SEQ ID NO:, error bars represent mean±SEM, statistical differences were calculated (one-way ANOVA with bonferroni correction) to control condition. *=p<0.05 lower than control condition for COL10A1, ALP, RUNX2, COX-2, MMP13 and ADAMTS5 and higher than control condition for BAPX1/NKX3.2. Random peptide is a peptide according to SEQ ID NO: 49 with amino acid sequence […].

[2] = system: OA articular chondrocytes; test: as above; assay type: cell-based, human; parameters: key: [—] denotes the absence of a significant effect or a significantly decreased expression of chondrogenic marker BAPX1/NKX3.2 or an increased expression of OA chondrocyte phenotypic markers ALP, MMP13, ADAMTS5, COX2, COL10A and RUNX2 in OA articular chondrocytes, in comparison to untreated OA articular chondrocyts; settings: Table 1, 20-mer peptides with native cysteines; vs untreated OA articular chondrocytes; remark: listed apart in the source
[3] = system: OA articular chondrocytes; test: as above; assay type: cell-based, human; settings: independent of the tested concentration (1000, 100, 10 and 1 nM were tested)
[4] = system: Cartilage explants; test: Safranin-O staining of glycosaminoglycans in cartilage explants; assay type: cell-based, human; settings: 14 days; BMP-7 1 nM, SEQ ID NO: 8 10 nM; 2 patients
Experimental: Cartilage explants obtained from 2 patients were cultured for 14 days in the presence of BMP-7 (1 nM) or BMP-7 mimicking peptide […] (SEQ ID NO: 8) at 10 nM. Glycosaminoglycans (GAGs), an important component of the extracellular matrix (ECM), were stained with Safranin-O (in red) and other tissues are counterstained with Fast green (in green/blue).

[5] = system: Synovial tissue, Hoffa's fat pad tissue and meniscus tissue samples from OA patients; test: PGE2 levels via ELISA in synovial, Hoffa's fat pad and meniscus tissue samples; assay type: cell-based, human; settings: 24 h; BMP-7 1 nM, peptides 10 nM
Experimental: Synovial tissue samples from OA patients (n=6) were treated with BMP-7 (1 nM), with peptide […] (SEQ ID NO: 8) at 10 nM or a scrambled irrelevant control peptide (10 nM) for 24 h. PGE2 levels were determined via an ELISA.
Hoffa's fat pad tissue samples from OA patients (n=6) were treated with BMP-7 (1 nM) with peptide […] (SEQ ID NO: 8) at 10 nM or a scrambled irrelevant control peptide (10 nM) for 24 h. PGE2 levels were determined via an ELISA.
Meniscus tissue samples from OA patients (n=6) were treated with BMP-7 (1 nM) with peptide […] (SEQ ID NO: 8) at 10 nM or a scrambled irrelevant control peptide (10 nM) for 24 h. PGE2 levels were determined via an ELISA.

[6] = system: Cartilage explants from OA patient's knee cartilage; test: PGE2 levels via ELISA in cartilage explants; assay type: cell-based, human; settings: 14 days; BMP-7 1 nM, peptides 10 nM
Experimental: Cartilage explants of 3 mm^2 were taken from OA patient's knee cartilage (n=6) and treated with BMP-7 (1 nM), with peptide […] (SEQ ID NO: 8) at 10 nM or a scrambled irrelevant control peptide (10 nM) for 14 days. Prostaglandin E2 (PGE2) levels, a pro-hypertrophic factor, were determined via an ELISA.

[7] = system: cartilage explants from OA patient's knee articular cartilage; test: Treatment of cartilage explants, hypertrophic gene expression via qRT-PCR; assay type: cell-based, human; settings: BMP-7 1 nM, SEQ ID NO: 16 10 nM, 24 h
Experimental: 4 mm2 cartilage explants were taken from non-lesion areas of OA patient's knee articular cartilage (n=5) and randomly assigned to different experimental treatment conditions (4 explants per treatment group). After a 24 h equilibration period the explants were treated with BMP-7 (1 nM) or the 12-mer peptide according to SEQ ID NO: 16 (10 nM) for 24 h. Hypertrophic gene expression was determined via qRT-PCR and normalized for 28S rRNA levels. After treatment with BMP-7 or the 12 mer we observed a downregulation of pro-hypertrophic genes, such as Col10a1 (FIG. 10A) and MMP13 (FIG. 10B).

[8] = system: Isolated chondrocytes from OA patients; test: Treatment of isolated chondrocytes from OA patients, gene expression via qRT-PCR; assay type: cell-based, human; settings: 1 nM, 24 h, n=6
Experimental: Isolated chondrocytes from OA patients (n=6) were treated with BMP-7 (1 nM) or the 12-mer peptide according to SEQ ID NO: 16 (1 nM) for 24 h. Pro-chondrogenic (FIG. 9A) and hypertrophic (FIGS. 9B, 9C and 9D) gene expression was determined via qRT-PCR and normalized for 28S rRNA levels.

[9] = system: Osteoarthritic chondrocytes; test: BMP-7 rescue of OA-associated chondrocyte phenotype (FIG. 1); assay type: cell-based
Experimental: Osteoarthritic chondrocytes display a typical phenotype that is characterized by decreased expression of SOX9, COL2A1, ACAN and BAPX1/NKX3.2 and an increased expression of RUNX2, COL10A1, ALP, MMP13, ADAMTSS, COX-2 and IL-6 mRNAs (see left panel).
Functional ALP enzyme activity in cell lysates and PGE2 secretion in the culture medium was also normalized upon BMP-7 treatment of OA chondrocytes (right panel).
Expression of indicated mRNAs was determined by RT-qPCR, relatively to control conditions (normalized for 28S rRNA expression). In graphs, error bars represent mean±SEM, statistical differences were calculated as compared to healthy condition. *=p<0.05.

[10] = system: OA patients; settings: intra-articular injection, phase-1; cited from earlier work
[11] = system: OA; settings: intra-articular administration, rats; cited from earlier work
[12] = BMP-7 treatment of OA chondrocytes

Molecule	ADAMTS5 expression [1]	ALP expression [2]	BAPX1/NKX3.2 expression [2]	COL10A expression [2]	COX-2 expression [2]	MMP13 expression [2]	RUNX2 expression [2]	Safranin-O intensity (GAGs) compared to control [4]	PGE2 levels in the surrounding tissues (synovial, Hoffa's fat pad, meniscus) [5]	PGE2 levels in the cartilage [6]	Col10a1 gene expression [7]	MMP13 gene expression [7]	COL10A1 gene expression (pro-hypertrophic) [8]	COX-2 gene expression (pro-hypertrophic) [8]	Col2a1 gene expression (pro-chondrogenic) [8]	RUNX2 gene expression (pro-hypertrophic) [8]	also measured
43 (LNAISVLYFDDSSNVILKKY; homo sapiens) [compound 43]	—	—	—	—	—	—	—										
44 (SSNVILKKYRNMVVRACGCH; homo sapiens) [compound 44]	—	—	—	—	—	—	—										
GYAAYYSEGESAFPLNSYMN (homo sapiens) [SEQ ID NO: 8]								increased Safranin-O intensity	reduce PGE2 levels	reduce PGE2 levels							suppression of the OA chondrocyte phenotype [3]: efficiently suppressed
YSEGESAFPLNS (homo sapiens) [SEQ ID NO: 16]											downregulation	downregulation	downregulation	downregulation	upregulation	downregulation	
bone morphogenetic protein-7 (protein, homo sapiens, full-length recombinant human BMP-7, mature polypeptide of 139 amino acids) STGSKQRSQNRSKTPKNQEALRMANVAENSSSDQRQACKKHELYVSFRDLGWQDWIIAPEGYAAYYCEGECAFPLNSYMNATNHAIVQTLVHFINPETVPKPCCAPTQLNAISVLYFDDSSNVILKKYRNMVVRACGCH								increased Safranin-O intensity	reduce PGE2 levels	reduce PGE2 levels	downregulation	downregulation	downregulation	downregulation	upregulation	downregulation	concentration at which OA chondrocyte-phenotype suppressive action is most pronounced [9]: around 1 nM; OA-associated chondrocyte phenotype (expression of SOX9, COL2A1, ACAN, BAPX1/NKX3.2, RUNX2, COL10A1, ALP, MMP13, ADAMTS5, COX-2, IL-6 mRNAs) ([9]; BMP-7 1 nM): able to rescue; effects on the chondrocyte phenotype at high concentration ([9]; BMP-7 concentrations higher than 1 nM (eg 10 nM or 100 nM)): opposite and negative effects; Functional ALP enzyme activity in cell lysates [9, 12]: normalized; PGE2 secretion in the culture medium [9, 12]: normalized; adverse events [10]: no serious adverse events; OA development and progression [11]: protects against OA development and delays progression of OA
